Reference: article PMC8805583, “Discovery of Herbacetin as a Novel SGK1 Inhibitor to Alleviate Myocardial Hypertrophy” (Advanced Science, 2021)

Assays:
Assay in all cases: KinaseProfiler Assay, AGC kinase panel
Assay type in all cases: biochemical
[1] = target: T1, G protein-coupled receptor kinase 3 (GRK3) (Homo sapiens, UniProt P35626); conditions: HBT 10 µmol
T1 construct: purchased Eurofins Discovery (KinaseProfiler Service)
T1 sequence (P35626 1-688): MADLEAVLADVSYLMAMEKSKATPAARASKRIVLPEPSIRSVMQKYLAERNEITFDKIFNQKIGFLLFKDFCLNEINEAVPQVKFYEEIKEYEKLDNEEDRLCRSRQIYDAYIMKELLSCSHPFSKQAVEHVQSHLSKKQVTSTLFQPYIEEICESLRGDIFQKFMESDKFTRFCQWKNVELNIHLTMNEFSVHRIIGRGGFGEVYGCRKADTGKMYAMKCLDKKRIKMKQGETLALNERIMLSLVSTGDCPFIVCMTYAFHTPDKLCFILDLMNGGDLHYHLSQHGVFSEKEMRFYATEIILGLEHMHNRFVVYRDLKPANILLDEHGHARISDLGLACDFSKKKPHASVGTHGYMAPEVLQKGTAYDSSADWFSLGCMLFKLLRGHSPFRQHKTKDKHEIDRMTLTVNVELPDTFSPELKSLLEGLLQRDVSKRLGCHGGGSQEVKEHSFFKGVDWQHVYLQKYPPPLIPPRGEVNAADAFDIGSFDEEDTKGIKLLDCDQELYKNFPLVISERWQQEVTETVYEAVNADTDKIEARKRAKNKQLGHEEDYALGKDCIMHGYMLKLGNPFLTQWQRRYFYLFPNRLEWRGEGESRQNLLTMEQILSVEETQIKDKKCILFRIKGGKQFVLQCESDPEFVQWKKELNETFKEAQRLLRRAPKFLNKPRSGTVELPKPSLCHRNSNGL
Source text: (§1) 20 structurally related flavonoids of HBT were collected, which differ in the number and position of —OH groups, and examined for their effects on SGK1 activity. Based on the docking prediction, the —OH group at the C‐4’ position of HBT was required for the interaction with the key SGK1 residue D177. Therefore, the 20 flavonoids were divided into two classes according to the presence or absence of an —OH group at C‐4’ (Figure 4B). At both tested concentrations, flavonoids with an —OH group at C‐4’ (class A) inhibited SGK1 more than those without an —OH group at C‐4’ (class B) (Figure 4C). The IC50 of each compound is listed in Figure 4D; and Figure S6 (Supporting Information). […] Conversely, the absence of an ‐OH group at C‐8 led to a greater than 10‐fold reduction in flavonoid SGK1 inhibitory activity, as shown by the performance of A1 or A4. […] The inhibitory activity of HBT (10 µmol) against 28 human AGC kinases was tested by KinaseProfiler Assay (Eurofins Discovery). The percentage of HBT's inhibitory activity against each kinase was normalized by the respective positive inhibitors of AGC kinases.
(§2) The initial crystal structures of SGK1 (PDB entry: 3HDN, 3HDM, and 2R5T) were obtained from the Protein Data Bank (PDB). The prepared inhibitors were then docked by Glide with the extra precision (XP) scoring mode to estimate the binding affinity for each protein–ligand complex. The detailed process of docking has been described previously.^[ [46] ^] HEK293T cells were transfected with SGK1 mutant plasmids. After 24 h, cells were lysed and immunoprecipitated with anti‐FLAG antibody and beads. Immune complexes were washed with kinase buffer and incubated in kinase buffer with substrate peptide for 1 h at 30 ℃ followed by LC/MS measurement as described above. KINOMEscan Profiling Service and KinaseProfiler Service Assay were provided by Eurofins Discovery.

[2] = target: T2, Rho-associated protein kinas-1 (ROCK-I) (Homo sapiens, UniProt Q13464); conditions: HBT 10 µmol
T2 construct: purchased Eurofins Discovery (KinaseProfiler Service)
Source text: as §1, §2

SGK2 = target: T3, SGK2 (Homo sapiens, UniProt Q9HBY8); conditions: HBT 10 µmol; normalized by positive inhibitors
T3 construct: purchased Eurofins Discovery (KinaseProfiler Service)
T3 sequence (Q9HBY8 1-367): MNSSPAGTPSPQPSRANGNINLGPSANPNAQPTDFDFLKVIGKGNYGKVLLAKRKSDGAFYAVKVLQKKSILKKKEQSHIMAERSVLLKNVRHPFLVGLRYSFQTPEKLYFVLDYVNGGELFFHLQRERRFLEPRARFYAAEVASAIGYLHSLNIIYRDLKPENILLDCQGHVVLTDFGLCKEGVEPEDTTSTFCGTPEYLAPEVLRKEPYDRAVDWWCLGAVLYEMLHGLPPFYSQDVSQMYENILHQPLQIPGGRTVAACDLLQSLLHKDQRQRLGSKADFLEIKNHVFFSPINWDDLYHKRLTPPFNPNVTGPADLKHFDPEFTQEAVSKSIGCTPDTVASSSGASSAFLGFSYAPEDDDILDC
Source text: as §1, §2

SGK3 = target: T4, SGK3 (Homo sapiens, UniProt Q96BR1); conditions: HBT 10 µmol; normalized by positive inhibitors
T4 construct: purchased Eurofins Discovery (KinaseProfiler Service)
T4 sequence (Q96BR1 1-496): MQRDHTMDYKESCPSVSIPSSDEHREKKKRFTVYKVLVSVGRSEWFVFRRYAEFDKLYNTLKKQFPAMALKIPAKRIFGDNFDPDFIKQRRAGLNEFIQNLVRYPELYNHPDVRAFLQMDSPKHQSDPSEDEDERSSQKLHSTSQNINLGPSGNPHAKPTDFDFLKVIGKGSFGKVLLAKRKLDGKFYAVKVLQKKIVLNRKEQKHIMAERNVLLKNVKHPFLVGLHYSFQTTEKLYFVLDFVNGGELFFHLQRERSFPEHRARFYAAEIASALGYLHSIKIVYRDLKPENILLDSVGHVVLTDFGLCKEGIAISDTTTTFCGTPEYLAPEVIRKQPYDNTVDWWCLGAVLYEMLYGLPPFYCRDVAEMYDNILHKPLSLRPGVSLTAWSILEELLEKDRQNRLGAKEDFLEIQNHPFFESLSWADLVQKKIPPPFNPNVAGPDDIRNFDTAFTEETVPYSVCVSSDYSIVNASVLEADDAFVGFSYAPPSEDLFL
Source text: as §1, §2

T2 sequence (Q13464 whole entry): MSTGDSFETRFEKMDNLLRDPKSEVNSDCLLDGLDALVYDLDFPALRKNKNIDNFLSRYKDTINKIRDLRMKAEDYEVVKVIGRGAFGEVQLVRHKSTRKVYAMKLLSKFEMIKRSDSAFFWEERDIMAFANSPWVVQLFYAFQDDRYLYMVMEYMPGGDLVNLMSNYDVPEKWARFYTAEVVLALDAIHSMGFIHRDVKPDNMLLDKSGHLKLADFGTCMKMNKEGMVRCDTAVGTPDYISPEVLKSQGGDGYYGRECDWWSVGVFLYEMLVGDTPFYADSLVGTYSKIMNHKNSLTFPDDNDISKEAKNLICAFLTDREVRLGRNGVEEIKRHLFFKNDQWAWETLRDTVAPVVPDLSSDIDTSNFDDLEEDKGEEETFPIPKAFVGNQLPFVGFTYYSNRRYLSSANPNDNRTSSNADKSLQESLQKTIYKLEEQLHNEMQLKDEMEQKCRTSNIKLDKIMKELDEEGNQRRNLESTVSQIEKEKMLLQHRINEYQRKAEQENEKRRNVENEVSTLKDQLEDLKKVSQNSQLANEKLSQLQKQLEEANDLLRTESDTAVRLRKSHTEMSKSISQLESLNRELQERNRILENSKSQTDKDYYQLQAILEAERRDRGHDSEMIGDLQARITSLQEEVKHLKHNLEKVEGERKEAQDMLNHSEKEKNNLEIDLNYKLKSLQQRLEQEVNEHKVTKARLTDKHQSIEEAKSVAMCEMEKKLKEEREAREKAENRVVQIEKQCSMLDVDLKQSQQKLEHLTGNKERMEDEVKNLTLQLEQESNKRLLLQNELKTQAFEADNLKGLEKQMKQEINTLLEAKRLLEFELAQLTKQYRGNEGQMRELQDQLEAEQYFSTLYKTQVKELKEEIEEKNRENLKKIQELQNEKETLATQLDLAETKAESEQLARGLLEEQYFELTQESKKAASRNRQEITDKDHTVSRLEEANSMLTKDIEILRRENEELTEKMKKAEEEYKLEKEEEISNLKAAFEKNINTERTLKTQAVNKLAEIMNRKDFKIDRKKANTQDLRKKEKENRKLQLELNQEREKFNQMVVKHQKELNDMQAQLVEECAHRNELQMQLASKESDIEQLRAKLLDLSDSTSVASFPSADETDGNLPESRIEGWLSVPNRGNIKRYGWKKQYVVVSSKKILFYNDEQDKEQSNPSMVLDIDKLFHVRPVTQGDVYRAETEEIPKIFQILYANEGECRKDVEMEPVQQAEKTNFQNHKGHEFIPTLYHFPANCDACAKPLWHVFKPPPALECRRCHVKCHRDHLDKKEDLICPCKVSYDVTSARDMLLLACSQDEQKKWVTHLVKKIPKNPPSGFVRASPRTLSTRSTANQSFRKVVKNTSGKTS

O=c1c(O)c(-c2ccc(O)cc2)oc2c(O)c(O)cc(O)c12 [HBT, herbacetin]
inhibitory effect on GRK3 [1]: high inhibitory effects | inhibitory effect on ROCK-I [2]: high inhibitory effects | inhibitory activity on SGK2 (SGK2): 105% | inhibitory activity on SGK3 (SGK3): 77%
